# Experimental data published in ChEMBL document CHEMBL1140641, “Novel ebselen-porphyrin conjugates: synthesis and nucleic acid interaction study” (Bioorg Med Chem Lett, 2007).
# Assays:
# Assay type in all cases: nucleic-acid assay
# Set-up in all cases: scale not given: the % may be the effect or the level left
# Conditions in all cases: Escherichia coli
# Nucleic Acid [1] = assay: DNA photocleavage activity assessed as pBluescript form II levels at 5 uM by plasmid DNA relaxation assay
# Nucleic Acid [2] = assay: DNA photocleavage activity assessed as pBluescript form II levels at 1 uM by plasmid DNA relaxation assay
# Nucleic Acid [3] = assay: DNA photocleavage activity assessed as pBluescript form II levels at 10 uM by plasmid DNA relaxation assay
# Nucleic Acid [4] = assay: DNA photocleavage activity assessed as pBluescript form II levels at 20 uM by plasmid DNA relaxation assay
compound,measurement,setting,value
O=c1c2ccccc2[se]n1-c1ccc(-c2c3nc(c(-c4ccccc4)c4ccc([nH]4)c(-c4ccccc4)c4nc(c(-c5ccccc5)c5ccc2[nH]5)C=C4)C=C3)cc1,Activity,Nucleic Acid [1],16%
same,Activity,Nucleic Acid [2],12%
same,Activity,Nucleic Acid [3],18%
same,Activity,Nucleic Acid [4],21%
